Laboratory results from US20250368644A1, “DURLOBACTAM CRYSTALLINE FORMS” (Entasis Therapeutics Limited, priority 2022, published 2025).
Structures can show the parent of a compound that is named as a salt.

Columns and labels:
[1] = Stability of DUR, its salts and crystalline forms (observations in words); conditions: for Stability of the crystalline form: DUR-Ca polymorphs, solvent systems, Calcium salt
Method: (§1) Attempts were undertaken to form DUR-Ca via salt metathesis by slurry reaction of DUR-TBA salt with six calcium salts (CaCl2), CaBr2, Ca(BF4)2. Ca(OAc)2, Calcium D-gluconate and Calcium citrate) to find an alternative method to the ion exchange resin, which is very time consuming and costly to scale up.
A range of crystallization experiments were carried out, including evaporations, ambient temperature slurries, vapor stress at ambient temperature and temperature cycling, in many different solvents, or solvent mixtures, using crystalline DUR-Ca, DUR-TBA, and DUR-TEA salts as seeds.

[2] = Solubility of the salt in solvents (observations in words); assay type: physicochemical
From the text: as §1

[3] = Salt slurry experiments with DUR-Ca Form A (solid form after slurry in solvents); assay type: physicochemical; conditions: 3 days
From the text: DUR-Ca Form A was slurred in 26 solvents for 3 days. A new distinct form (assigned as Form C) was obtained in most of solvents (Table 19).

[4] = system: β-lactamases commonly found in A. baumannii; conditions: preclinical studies, background statement; cited from earlier work

With `CC1=CC2CN(C(=O)N2OS(=O)(=O)O)C1C(N)=O.c1ccncc1` (centres unmarked) [pyridine salt] the “Stability of the salt as isolated solid” value [1] was “not stable”.
For `CC1=C[C@@H]2CN(C(=O)N2OS(=O)(=O)O)[C@@H]1C(N)=O` [DUR-Ca Form C, Durlobactam Calcium salt], the “Stability of the crystalline form” value ([1]; listed as crystalline form C) was “more stable”.
In the case of `CC1=C[C@@H]2CN(C(=O)N2OS(=O)(=O)O)[C@@H]1C(N)=O` [DUR-TBA, Durlobactam Tetrabutylammonium salt], the Solubility ([2]; EtOH) is reported as “soluble” and the Solubility ([2]; most solvents) is reported as “soluble in most solvents”.
With `CC1=C[C@@H]2CN(C(=O)N2OS(=O)(=O)O)[C@@H]1C(N)=O` [DUR-Ca Form A, Durlobactam Calcium salt] the “Result (solid form after slurry)” value ([3]; Slurry 1, Methanol) was “Form C”, the “Result (solid form after slurry)” value ([3]; Slurry 2, Ethanol) was “Form C” and the “Result (solid form after slurry)” value ([3]; Slurry 3, IPA) was “Form C”. The “Result (solid form after slurry)” value ([3]; Slurry 4, THF) was “Amorphous”, the “Result (solid form after slurry)” value ([3]; Slurry 5, EtOAc) was “Form C” and the “Result (solid form after slurry)” value ([3]; Slurry 6, Acetone) was “Form C”. The “Result (solid form after slurry)” value ([3]; Slurry 7, Isobutanol) was “Form C”, the “Result (solid form after slurry)” value ([3]; Slurry 8, Isopropyl Acetate) was “Form C” and the “Result (solid form after slurry)” value ([3]; Slurry 9, Acetonitrile) was “Form C”. For the same molecule, the “Result (solid form after slurry)” value ([3]; Slurry 10, 2-Butanone) was “Form C”, the “Result (solid form after slurry)” value ([3]; Slurry 11, Toluene) was “Mixture of Form A and C” and the “Result (solid form after slurry)” value ([3]; Slurry 13, Tert-butyl methyl ether) was “Form C”. The “Result (solid form after slurry)” value ([3]; Slurry 14, Propanol) was “Form C”, the “Result (solid form after slurry)” value ([3]; Slurry 15, Isopentanol) was “Form C” and the “Result (solid form after slurry)” value ([3]; Slurry 16, Butyl acetate) was “Form C”. The “Result (solid form after slurry)” value ([3]; Slurry 17, Ethyl Formate) was “Form C”, the “Result (solid form after slurry)” value ([3]; Slurry 18, 1,4-dioxane) was “Amorphous” and the “Result (solid form after slurry)” value ([3]; Slurry 19, Butanol) was “Form C”. The “Result (solid form after slurry)” value ([3]; Slurry 20, Heptane) was “Form C”, the “Result (solid form after slurry)” value ([3]; Slurry 21, Pentane) was “Form C” and the “Result (solid form after slurry)” value ([3]; Slurry 22, Cyclohexane) was “Form C”. For the same molecule, the “Result (solid form after slurry)” value ([3]; Slurry 23, Methylisobutyl Ketone) was “Form C”, the “Result (solid form after slurry)” value ([3]; Slurry 24, Xylene) was “Form C” and the “Result (solid form after slurry)” value ([3]; Slurry 25, Isobutyl acetate) was “Form C”. For the same molecule, the “Result (solid form after slurry)” value ([3]; Slurry 26, Ethyl ether) was “Form C” and the “Stability of the crystalline form” value ([1]; listed as Crystalline form A) was “unstable in certain solvent systems”.
For `CC1=C[C@@H]2CN(C(=O)N2OS(=O)(=O)O)[C@@H]1C(N)=O` [DUR, Durlobactam], the “Chemical stability (degradation)” value ([1]; free acid) is given as “readily degraded” and the “Inhibition of β-lactamases” value [4] is given as “inhibit the β-lactamases commonly found in A. baumannii”.
